# Patent US7687473B2, “5-amino-4-imidazolecarboxamide riboside and its nucleobase as potentiators of antifolate transport and metabolism” (Health Research, Inc., priority 2005, dated 2010)
# Experiments:
# [1] = tested on: CCRF-CEM cells; assay: [3H]MTX uptake (initial velocity and 30 min accumulation) in CCRF-CEM cells; type: cell-based, human
# Protocol: (§1) Quantitation of folate and antifolate uptake. The method is essentially as follows. Briefly, logarithmically growing (3-5×10^5/ml) CCRF-CEM cells were harvested at room temperature by centrifugation at 1000×g for 5 min. After washing with the appropriate medium, cells were suspended at ≈2×10^7 cells/ml for use in transport studies. […] Anion-free MHS contains 250 mM sucrose and 20 mM HEPES, titrated to pH 7.4 with MgO. […] Uptake was measured as a function of time for 30 min (for rate and extent measurements) or over 5 min (studies requiring initial velocities). […] Uptake was terminated by diluting 100 μL samples into 1 ml of iced 0.9% NaCl. […] The supernatant was aspirated. The cell pellet was washed once with 1 ml iced 0.9% NaCl and centrifuged as above. The washed pellet was solubilized in 1 ml of 0.3% Triton X-100 by incubation for 60 min at 37° C. The solubilized pellet was transferred to a scintillation vial, 10 ml of Liquiscint (National Diagnostics, Atlanta, Ga.) was added and radioactivity was quantitated in a Beckman Model LS6500 liquid scintillation counter. Separate samples at the longest incubation time used in a particular experiment were harvested for HPLC analysis of intracellular contents as above, except that after the second wash the pellets were extracted with 1 ml boiling 0.1 M Na-phosphate, pH 5.5. The extract was clarified by centrifugation and the supernatant was filtered through an MPS-1 filter unit (Amicon) prior to HPLC analysis.
# [2] = tested on: CCRF-CEM; conditions: 10 μg/ml, within 5 min; cited from earlier work
# [3] = tested on: CCRF-CEM cells; assay: Effect of protein kinase inhibitors on [3H]MTX uptake; type: cell-based, human
# Source text: To determine whether protein phosphorylation is involved in the mechanism of Z potentiation, we began studies with a series of protein kinase (PK) inhibitors (PKI).
# [4] = tested on: CCRF-CEM cells; assay: [3H]leucovorin uptake in CCRF-CEM cells; type: cell-based, human; conditions: 1 μM [3H]LV; 10 min preincubation, 1 μM TMTX, 0.5 mM Z
# Protocol: as §1
# [5] = tested on: CCRF-CEM cells; assay: Subcellular localization of [3H]MTX; type: cell-based, human; conditions: 30 min uptake of 2 μM [3H]MTX; 2 μM TMTX, 500 μM Z
# Protocol: Subcellular fractionation. […] Cells were diluted 9-fold in iced 0.9% NaCl, centrifuged at 1000×g for 5 min and washed once with 40 ml iced saline. All subsequent steps were performed at 4°. Cells were homogenized as previously described, except that hypotonic buffer at 20-fold the packed cell volume was used, and the homogenate was centrifuged for 6 min at 1000×g to yield a nuclear pellet (also containing unlysed cells and large debris) and a post-nuclear supernatant (PNS). Based on controls using nonradiolabeled cells, >91% of the cells would be lysed during homogenization. The PNS was centrifuged at 17,000×g to yield a combined mitochondria-lysosome pellet. The resulting supernatant was centrifuged at 100,000×g for 60 min to yield the 100,000×g supernatant (cytosol). The 100,000×g pellet (microsomes) and the combined mitochondria-lysosome pellet were each washed in isotonic buffer and centrifuged at their respective g-forces. All pellets were solubilized in 0.3% Triton X-100 by incubating at 37° for 1 hr; 1 ml was transferred to a scintillation vial for quantitation. Triton X-100 was added to the cytosol to a final concentration of 0.3% and a 1 ml aliquot was quantitated. Radioactivity in each fraction was corrected for a blank containing 0.3% Triton X-100.
# [6] = target: T1, reduced folate carrier (RFC) (Homo sapiens, UniProt P41440); assay: Kinetic constants for influx of [3H]MTX by CCRF-CEM cells; type: cell-based; conditions: influx of [3H]MTX; pre-incubation with solvent (MTX alone), 1 μM TMTX, or 1 μM TMTX + 0.5 mM Z
# T1 construct: endogenous in cells; host or cells: CCRF-CEM (parental)
# T1 sequence (P41440 1-591): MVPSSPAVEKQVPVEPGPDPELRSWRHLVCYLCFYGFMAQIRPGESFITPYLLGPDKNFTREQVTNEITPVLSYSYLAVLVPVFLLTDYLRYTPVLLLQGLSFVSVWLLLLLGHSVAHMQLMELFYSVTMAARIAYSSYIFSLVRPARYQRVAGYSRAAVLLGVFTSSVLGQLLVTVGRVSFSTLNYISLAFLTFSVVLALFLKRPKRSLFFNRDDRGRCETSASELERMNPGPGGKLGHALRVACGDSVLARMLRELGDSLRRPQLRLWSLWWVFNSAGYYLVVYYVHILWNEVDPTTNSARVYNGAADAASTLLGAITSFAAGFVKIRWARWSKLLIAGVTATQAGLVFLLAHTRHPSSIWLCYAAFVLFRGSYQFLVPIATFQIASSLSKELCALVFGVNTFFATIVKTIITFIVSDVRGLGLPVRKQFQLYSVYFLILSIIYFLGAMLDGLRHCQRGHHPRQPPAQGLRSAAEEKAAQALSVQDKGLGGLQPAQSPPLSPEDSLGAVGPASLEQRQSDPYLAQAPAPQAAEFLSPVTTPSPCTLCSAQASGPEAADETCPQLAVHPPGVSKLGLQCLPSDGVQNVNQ
# Protocol: as §1
# Inhibition of the vi of uptake was measured after pre-incubation of CCRF-CEM cells either with TMTX alone (measuring inhibition at the RFC) or with TMTX+Z (measuring inhibition during Z potentiation). […] All studies were carried out in standard transport medium. Inhibitory potency was measured in two series of experiments and AMT was included in each series as an internal control. Values are average±range of two determinations. […] Values are average±range for duplicate determinations.
smiles,measurement,setting,value
"C[C@@H]1C[C@@H]([C@H](O)CC2CC(=O)NC(=O)C2)C(=O)[C@@H](C)C1 [CHX, cycloheximide]",Potentiation of [3H]MTX influx by 0.5 mM Z after protein synthesis inhibition,"[1]; 10 μg/ml CHX preincubated 10 min, Z added for last 5 min",potentiation still occurred
same,Inhibition of protein synthesis,[2],completely inhibited
"O=c1c(O)c(-c2ccc(O)c(O)c2)oc2cc(O)cc(O)c12 [Quercetin, quercetin]",Decrease of 30 min accumulation +TMTX+Z,[3]; 50 μM,21%
same,Decrease of initial influx rate,[3]; 50 μM,43%
same,Decrease of 30 min accumulation +TMTX+Z,[3]; 100 μM,38%
same,Decrease of initial influx rate,[3]; 100 μM,55%
same,Increase of uptake +TMTX at 30 min,[3]; 50 or 100 μM,10-12%
"COc1cc(NCc2ccc3nc(N)nc(N)c3c2C)cc(OC)c1OC [TMTX, trimetrexate]",Extent of [3H]MTX accumulation at 30 min relative to absence of TMTX,"[1]; 10 min preincubation with 2 μM TMTX, no Z",90-100%
same,Increase in 30 min accumulation (extent) of [3H]LV,[4],1.6 fold
same,Increase in vi of [3H]LV uptake,[4],1.4 fold
same,"Relative radioactivity, Cytosol",[5],88.9%
same,"Relative radioactivity, Microsomes",[5],0.2%
same,"Relative radioactivity, Mito-Lysosomes",[5],0.4%
same,"Relative radioactivity, Nuclear Pellet",[5],10.5%
same,Total [3H]MTX recovered in all four fractions,[5],338.4 pmol
same,"[3H]MTX/fraction, Cytosol",[5],300.3 pmol
same,"[3H]MTX/fraction, Microsomes",[5],0.7 pmol
same,"[3H]MTX/fraction, Mito-Lysosomes",[5],1.3 pmol
same,"[3H]MTX/fraction, Nuclear Pellet",[5],35.5 pmol
same,Kt,[6],5.3 ± 0.6 µM
same,Vmax,[6],7.2 ± 0.6 pmol/min/10^7 cells
same,Vmax/Kt,[6],1.36
